Measured values reported in article PMC10349806 (Nature Communications, 2023).
Values joined by “and” are separate entries in the source; they are usually repeats but may differ in a detail not shown here. Identical values can stand only once.

Biological target: T1, PfCRT variant E278A (Plasmodium falciparum, UniProt Q9N623, A220S/E278A/I356T/K76T/M74I/N326S/N75E/Q271E/R371I)
T1 sequence (Q9N623 1-424 M74I/N75E/K76T/A220S/Q271E/E278A/N326S/I356T/R371I): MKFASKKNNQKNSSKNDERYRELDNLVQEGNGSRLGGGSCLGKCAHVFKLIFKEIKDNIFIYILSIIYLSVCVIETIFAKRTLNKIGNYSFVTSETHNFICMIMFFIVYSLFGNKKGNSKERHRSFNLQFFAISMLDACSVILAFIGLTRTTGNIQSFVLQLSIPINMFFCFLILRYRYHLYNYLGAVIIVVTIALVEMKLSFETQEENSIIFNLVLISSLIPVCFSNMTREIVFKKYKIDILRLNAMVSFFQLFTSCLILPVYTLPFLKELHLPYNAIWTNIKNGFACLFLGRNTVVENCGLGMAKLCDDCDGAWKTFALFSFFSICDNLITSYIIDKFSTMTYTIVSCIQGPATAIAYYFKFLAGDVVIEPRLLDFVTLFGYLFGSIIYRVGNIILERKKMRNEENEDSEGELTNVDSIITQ
Experiment: CQ uptake assay, oocytes expressing E278A
Assay type: cell-based
Experimental: Site-directed mutagenesis of PfCRT^Dd2 was performed as described using the megaprimer method with overlap extension[21],[54]. The primer pairs used are listed in Supplementary Table 6. Please note that a codon-optimized and oocyte-adapted version of PfCRT^Dd2 was used[22] (Supplementary Fig. 16). The resulting DNA fragment was cloned into the SP64T expression vector and verified by sequencing.
Oocytes were obtained as described previously. Briefly, adult (>2 years old) female X. laevis frogs (NASCO) were anesthetized in a cooled solution of ethyl 3-amino benzoate methanesulfonate (0.1%, w/v), followed by a surgical removal of parts of the ovary. The ovary lobes were carefully dissected and small pieces of oocytes were incubated in Ca^2+-free ND96 buffer (96 mM NaCl, 2 mM KCl, 1 mM MgCl2 buffered with 5 mM HEPES/NaOH, pH 7.5) supplemented with collagenase D (0.1%, w/v; Roche), BSA (0.5%, w/v), and 9 mm Na2HPO4 at 18 °C for 14-16 h while gentle shaking. After incubation, the oocytes were carefully washed several times with ND96 buffer (96 mM NaCl, 2 mM KCl, 1.8 mM CaCl2, 1 mM MgCl2 buffered with 5 mM HEPES/NaOH, pH 7.5) supplemented with 100 mg l^−1 gentamycin). Defolliculated and healthy-looking stage V-VI oocytes were manually selected for RNA microinjection. The RNA was generated as following: The codon-optimized sequences of PfCRT variants were cloned into the pSP64T expression vector. After vector linearization using the restriction endonucleases BamHI or SalI (New England Biolabs), transcription was performed using the in vitro SP6 mMessage mMachine Kit (Ambion)[34]. The obtained RNA was kept at −80 °C and diluted with nuclease-free water to a concentration of 0.6 μg μl^−1. Precision-bore glass capillary tubes (3.5-inch glass capillaries; Drummond Scientific Co.) were pulled on a vertical puller (P-87 Flaming/Brown micropipette puller, Sutter Instrument Co.), graduated, and placed on a microinjector (Nanoject II Auto-Nanoliter Injector, Drummond Scientific Co.). 50 nl of nuclease-free water alone (control oocytes) or 50 nl of 0.6 μg μl^−1 RNA were injected under stereomicroscopic control. Injected oocytes were incubated for 46–72 h at 18 °C with twice-daily buffer changes before usage in experiments.
Drug uptake assays were performed as described previously[21],[22],[24],[34]. […] The direction of radio-labeled drug transport is here from the mostly acidic extracellular solution (pH 4.5 or 6.0, as indicated) into the oocyte cytosol (pH ∼ 7.2), which corresponds to the efflux of drug from the acidic digestive vacuole (pH 5.2) into the parasite cytoplasm (pH 7.2). The topology of PfCRT in the oolemma is such that both the N- and C-terminus face the extracellular milieu[3],[22]. In the parasite, the N- and C-terminus face the lumen of the digestive vacuole. CQ uptake kinetics were performed by incubating oocytes in ND96 buffer adjusted to a pH of 4.5, 5.0, 5.5, or 6.0 and supplemented with 50 nM [^3H]CQ and one of 7 different CQ concentrations (10 µM, 50 µM, 100 µM, 200 µM, 300 µM, 400 µM, 500 µM CQ). The reaction was stopped at the 60 min time point, which is in the linear uptake range[22],[34] (Supplementary Fig. 17). […] The radioactivity of each sample was measured using a liquid scintillation analyzer Tri-Carb 4910 TR (PerkinElmer). Oocytes that were injected with water instead of RNA were analyzed in parallel, representing the uptake of a drug by diffusion and/or endogenous permeation pathways. […]

[1] = E278A, 50 µM CQ, 1 h, mean ± SEM

CCN(CC)CCCC(C)Nc1ccnc2cc(Cl)ccc12 (centres unmarked) [CQ, chloroquine]
Activity at pH 4.5 [1]: 1.17 ± 0.07 pmol h-1 oocyte-1 | Activity at pH 6.0 [1]: 2.21 ± 0.24 pmol h-1 oocyte-1 | R-value (E278A, CQ transport at pH 4.5 / pH 6.0): 0.56 ± 0.10 | E278A transport activity pH 4.5 (pH 4.5, single replicates, Fig 1d left): 1.19 pmol oocyte-1 h-1 and 1.00 pmol oocyte-1 h-1 and 1.31 pmol oocyte-1 h-1 | E278A transport activity pH 6.0 (pH 6.0, single replicates, Fig 1d left): 2.40 pmol oocyte-1 h-1 and 2.59 pmol oocyte-1 h-1 and 1.63 pmol oocyte-1 h-1
